In paper PMC9102847, “7-Aminoalkoxy-Quinazolines from Epigenetic Focused Libraries Are Potent and Selective Inhibitors of DNA Methyltransferase 1” (Molecules, 2022):
Where two headings read alike, the source gives them in different places.

Key:
DNMT1 [1] = molecular target: T1, DNMT1 (Homo sapiens, UniProt P26358); parameters: method as in PMID 29953809; details: Figure 1, activity as available in the literature; cited from earlier work
T1 construct: purchased Reaction Biology Corporation

DNMT3B [2] = molecular target: T2, DNMT3B (Homo sapiens, UniProt Q9UBC3); parameters: method as in PMID 29953809; details: Figure 1, activity as available in the literature; cited from earlier work
T2 construct: purchased Reaction Biology Corporation

G9a [3] = details: Figure 1, activity as available in the literature; cited from earlier work
DNMT1 [4] = molecular target: T1, DNMT1; assay: HotSpot radioisotope methyltransferase inhibition assay, DNMT1; assay type: biochemical; details: for relative enzymatic activity of DNMT1 as percentages: 100 μM compound, mean of two measurements ± standard deviation; for IC50: 10-concentration IC50, 1 μM SAM, mean of two measurements; for DNMT1: % inhibition / inhibition at 100 µM: single concentration 100 µM, duplicate, 1 μM SAM
DNMT3A [5] = molecular target: T3, DNMT3A (Homo sapiens, UniProt Q9Y6K1); assay: HotSpot radioisotope methyltransferase inhibition assay, DNMT3A; assay type: biochemical
T3 construct: purchased Reaction Biology Corporation
T3 sequence (Q9Y6K1 whole entry, looked up): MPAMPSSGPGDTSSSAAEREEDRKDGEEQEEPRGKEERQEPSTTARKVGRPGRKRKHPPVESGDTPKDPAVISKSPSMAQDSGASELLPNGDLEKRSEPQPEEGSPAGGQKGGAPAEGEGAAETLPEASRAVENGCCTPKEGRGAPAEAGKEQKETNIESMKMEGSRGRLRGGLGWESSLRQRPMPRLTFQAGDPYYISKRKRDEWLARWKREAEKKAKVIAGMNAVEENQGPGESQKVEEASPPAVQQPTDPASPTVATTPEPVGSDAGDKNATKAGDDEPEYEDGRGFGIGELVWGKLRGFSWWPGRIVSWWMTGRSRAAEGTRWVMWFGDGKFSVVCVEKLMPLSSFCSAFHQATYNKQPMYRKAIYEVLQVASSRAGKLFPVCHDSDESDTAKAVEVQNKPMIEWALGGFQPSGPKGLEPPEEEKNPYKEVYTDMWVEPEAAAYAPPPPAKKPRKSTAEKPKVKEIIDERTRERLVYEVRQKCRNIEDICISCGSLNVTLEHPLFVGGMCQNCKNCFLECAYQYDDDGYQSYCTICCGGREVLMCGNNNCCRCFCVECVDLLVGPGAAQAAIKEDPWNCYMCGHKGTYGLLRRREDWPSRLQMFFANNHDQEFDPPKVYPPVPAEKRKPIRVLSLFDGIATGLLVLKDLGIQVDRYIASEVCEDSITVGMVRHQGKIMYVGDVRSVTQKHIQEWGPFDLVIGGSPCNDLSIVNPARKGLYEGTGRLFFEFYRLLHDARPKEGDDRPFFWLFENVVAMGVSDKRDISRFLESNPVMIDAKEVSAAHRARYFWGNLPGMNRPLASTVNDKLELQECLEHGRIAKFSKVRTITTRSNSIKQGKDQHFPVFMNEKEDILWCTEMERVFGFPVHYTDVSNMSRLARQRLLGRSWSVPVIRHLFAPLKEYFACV
Description: The inhibition of the enzymatic activity of DNMT1, DNMT3A, and DNMT3B was tested using the HotSpotSM platform for methyltransferase assays available at Reaction Biology Corporation. HotSpotSM is a low volume radioisotope-based assay that uses tritium-labeled AdoMet (3H-SAM) as a methyl donor. The three test compounds diluted in dimethyl sulfoxide were added using acoustic technology (Echo550, Labcyte, San Jose, CA, USA) into an enzyme/substrate mixture in the nano-liter range. The corresponding reactions were commenced by adding 3H-SAM and incubated at 30 °C. Total final methylations on the substrate (Poly dI-dC in DNMT1, 3A, and 3B assays) were identified by a filter binding method implemented in Reaction Biology. Data analysis was done with Graphed Prism software (La Jolla, CA, USA) for curve fits. The enzymatic inhibition assays were carried out at 1 μM of SAM. In all assays, SAH was used as a standard positive control. The three compounds were tested first with DNMT1 at one 100 μM concentration in duplicate. […] The research group has recently contracted the screening services of Reaction Biology Corporation to identify a novel DNMTi.

[6] = test system: human breast adenocarcinoma (MDA-MB-231) cells; parameters: method as in PMID 21780790; details: read-out: cell toxicity EC50; cited from earlier work
G9a [7] = test system: G9a; parameters: method as in PMID 21780790; details: enzymatic, in vitro; cited from earlier work
DNMT3B [8] = molecular target: T2, DNMT3B; assay: HotSpot radioisotope methyltransferase inhibition assay, DNMT3B; assay type: biochemical; details: for inhibition of DNMT3B (in words): enzymatic inhibition assays
[9] = test system: H3K9me2 levels in human breast adenocarcinoma (MDA-MB-231) cells; parameters: method as in PMID 21780790; details: read-out: potency in reducing H3K9me2 levels; cited from earlier work
DNMT3B [10] = molecular target: T2, DNMT3B; parameters: method as in PMID 34790902; details: Pappalardi et al.; cited from earlier work
DNMT3A/3L = test system: DNMT3A/3L; parameters: method as in PMID 29953809; details: Figure 1, activity as available in the literature; cited from earlier work
DNMT3B/3L = test system: DNMT3B/3L; parameters: method as in PMID 29953809; details: Figure 1, activity as available in the literature; cited from earlier work
DNMT3A [11] = molecular target: T3, DNMT3A; parameters: method as in PMID 34790902; details: Pappalardi et al.; cited from earlier work
[12] = test system: human acute myeloid leukemia xenograft; parameters: method as in PMID 29953809; details: human acute myeloid leukemia xenograft in a mouse model; cited from earlier work

T1 sequence (P26358 whole entry): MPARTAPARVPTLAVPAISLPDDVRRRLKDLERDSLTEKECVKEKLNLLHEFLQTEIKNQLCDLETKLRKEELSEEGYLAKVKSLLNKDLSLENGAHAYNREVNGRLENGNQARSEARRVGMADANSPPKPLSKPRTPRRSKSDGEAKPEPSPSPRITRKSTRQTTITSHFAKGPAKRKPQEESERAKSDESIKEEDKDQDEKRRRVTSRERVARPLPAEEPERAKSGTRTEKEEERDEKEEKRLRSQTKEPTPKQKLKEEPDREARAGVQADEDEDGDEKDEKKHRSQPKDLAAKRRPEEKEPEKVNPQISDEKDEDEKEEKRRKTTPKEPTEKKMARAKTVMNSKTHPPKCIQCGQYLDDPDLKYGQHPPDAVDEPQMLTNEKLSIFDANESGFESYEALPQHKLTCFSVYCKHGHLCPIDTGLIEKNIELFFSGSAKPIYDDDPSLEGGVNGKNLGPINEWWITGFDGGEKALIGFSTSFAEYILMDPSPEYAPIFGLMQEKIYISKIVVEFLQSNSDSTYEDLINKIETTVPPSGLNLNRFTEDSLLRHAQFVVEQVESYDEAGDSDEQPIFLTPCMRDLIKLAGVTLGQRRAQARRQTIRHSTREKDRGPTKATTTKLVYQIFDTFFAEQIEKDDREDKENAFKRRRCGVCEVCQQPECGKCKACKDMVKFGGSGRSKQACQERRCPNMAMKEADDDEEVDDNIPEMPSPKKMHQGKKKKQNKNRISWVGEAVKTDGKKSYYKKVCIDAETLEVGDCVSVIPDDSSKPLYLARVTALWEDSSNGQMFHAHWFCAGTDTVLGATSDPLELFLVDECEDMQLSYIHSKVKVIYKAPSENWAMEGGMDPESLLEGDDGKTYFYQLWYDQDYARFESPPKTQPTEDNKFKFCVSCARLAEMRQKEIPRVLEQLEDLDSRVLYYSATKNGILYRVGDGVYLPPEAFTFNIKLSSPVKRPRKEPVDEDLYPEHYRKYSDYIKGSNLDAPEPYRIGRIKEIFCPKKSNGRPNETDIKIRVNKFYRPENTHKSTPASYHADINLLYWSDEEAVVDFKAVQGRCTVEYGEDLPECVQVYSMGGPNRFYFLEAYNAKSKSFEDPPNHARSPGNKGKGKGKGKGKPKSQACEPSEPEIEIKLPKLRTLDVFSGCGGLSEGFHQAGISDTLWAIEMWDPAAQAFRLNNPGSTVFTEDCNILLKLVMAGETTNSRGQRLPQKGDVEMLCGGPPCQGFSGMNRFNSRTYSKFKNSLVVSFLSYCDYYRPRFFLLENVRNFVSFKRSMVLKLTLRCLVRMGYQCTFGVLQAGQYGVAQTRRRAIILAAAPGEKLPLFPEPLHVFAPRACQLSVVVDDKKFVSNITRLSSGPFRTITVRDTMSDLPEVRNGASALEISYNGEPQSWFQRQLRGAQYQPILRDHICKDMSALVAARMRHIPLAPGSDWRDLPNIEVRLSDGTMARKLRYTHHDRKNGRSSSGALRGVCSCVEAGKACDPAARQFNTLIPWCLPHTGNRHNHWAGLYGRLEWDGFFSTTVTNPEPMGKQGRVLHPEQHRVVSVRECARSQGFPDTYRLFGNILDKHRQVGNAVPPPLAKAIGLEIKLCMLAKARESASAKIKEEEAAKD

In the case of COc1cc2c(NC3CCN(C(C)C)CC3)nc(N3CCC(F)(F)CC3)nc2cc1OCCCN1CCCC1 [compound 11], the IC50 (DNMT1 [1]) is listed as over 50 µM.
In the case of COc1ccc(Cl)cc1C(=O)NCCc1ccc(S(=O)(=O)NC(=O)NC2CCCCC2)cc1 [compound 4, Glyburide], the IC50 (DNMT3B [2]) is given as over 100 µM.
For COc1cc2c(NC3CCN(C(C)C)CC3)cc(C3CCCCC3)nc2cc1OCCCN1CCCC1 [compound 7], the IC50 (G9a [3]) is listed as 0.0007 µM.
With COc1cc2c(NC3CCN(CC4CCCCC4)CC3)nc(N3CCCN(C(C)C)CC3)nc2cc1OCCCN1CCCCC1 [compound 13] the “relative enzymatic activity of DNMT1 as percentages” value (DNMT1 [4]) was 0.7 ± 0.02%, the IC50 (DNMT1 [4]) was 0.081 µM and the “DNMT1: % inhibition” value (DNMT1 [4]) was 99.3%. For the same compound, the inhibition at 100 µM (DNMT1 [4]) was over 99%, the IC50 (DNMT3A [5]) was 14.7 µM and the EC50 [6] was 2.8 µM. For the same compound, the IC50 (G9a [7]) was 0.004 µM, the “inhibition of DNMT3B (in words)” value (DNMT3B [8]) was “none of them inhibited” and the IC50 (DNMT3B [8]; read-out: DNMT3B IC50) was over 100 µM. For the same compound, the IC50 [9] was 0.025 µM.
In the case of Nc1ncnc2c1ncn2[C@@H]1O[C@H](CSCC[C@H](N)C(=O)O)[C@@H](O)[C@H]1O [SAH, S-adenosyl-L-homocysteine], the IC50 (DNMT3B [10]) is listed as 0.09 µM, the IC50 (DNMT3A [5]) is listed as 0.1 µM and the IC50 (DNMT3B [8]) is listed as 0.03 µM.
In the case of CCc1c(C#N)c(SC(C(N)=O)c2ccccc2)nc(N2CCC(N)CC2)c1C#N (stereo not drawn) [compound 5], the “inhibition of DNMT3B (in words)” value (DNMT3B [10]) is listed as “did not inhibit”, the IC50 (DNMT3A/3L) is listed as over 100 µM and the IC50 (DNMT3B/3L) is listed as over 100 µM. The “inhibition of DNMT3A (in words)” value (DNMT3A [11]) was “did not inhibit”.
With COc1cc2c(NC3CCN(C4CCCCC4)CC3)nc(N3CCCN(C(C)C)CC3)nc2cc1OCCCN1CCCCC1 [compound 12] the “relative enzymatic activity of DNMT1 as percentages” value (DNMT1 [4]) was 0.3 ± 0.10%, the IC50 (DNMT1 [4]) was 0.03 µM and the “DNMT1: % inhibition” value (DNMT1 [4]) was 99.7%. The inhibition at 100 µM (DNMT1 [4]) was over 99%, the IC50 (DNMT3A [5]) was 4.87 µM and the EC50 [6] was 3.3 µM. The IC50 (G9a [7]) was 0.006 µM, the “inhibition of DNMT3B (in words)” value (DNMT3B [8]) was “none of them inhibited” and the IC50 (DNMT3B [8]; read-out: DNMT3B IC50) was over 100 µM. The IC50 [9] was 0.026 µM.
In the case of Cc1cc(Nc2ccc(NC(=O)c3ccc(Nc4ccnc5ccccc45)cc3)cc2)nc(N)n1 [compound 3], the IC50 (DNMT3B [10]) is listed as 7 µM and the IC50 (G9a [3]) is listed as over 10 µM.
For COc1cc2c(NC3CCN(C)CC3)cc(-c3ccc(C)o3)nc2cc1OCCCN1CCCC1 [compound 8], the tumor growth inhibition [12] is given as 70%.
For Nc1ncn([C@H]2C[C@H](O)[C@@H](CO)O2)c(=O)n1 [compound 2, 5-aza-2′-deoxycytidine], the IC50 (G9a [3]) is listed as over 10 µM.
In the case of Nc1ncn([C@@H]2O[C@H](CO)[C@@H](O)[C@H]2O)c(=O)n1 [compound 1, 5-azacitidine], the IC50 (G9a [3]) is listed as over 10 µM.
In the case of COc1cc2c(Nc3ccc(NC(=O)c4ccccc4)cc3)ncnc2cc1OCCCN1CCOCC1 [compound 14], the “relative enzymatic activity of DNMT1 as percentages” value (DNMT1 [4]) is reported as 92.6 ± 2.40% and the inhibition at 100 µM (DNMT1 [4]) is reported as 7.4%.
For COc1cc2nc(N3CCCN(C)CC3)nc(NC3CCN(Cc4ccccc4)CC3)c2cc1OC [compound 9], the IC50 (DNMT1 [1]) is given as over 10 µM.
In the case of C[C@@H]1O[C@@H](CC(=O)O)CC2=C1C(=O)c1c(O)cccc1C2=O [compound 6, nanaomycin A], the IC50 (DNMT1 [1]) is listed as over 10 µM.
